The data set in a line: Thermo Scientific Acclaim RSLC 120 C18, 100 × 2.1 mm, 2.2 µm, 30 °C; A: 90% water + 10% methanol + 0.01% formic acid + 5 mM ammonium formate; B: methanol + 0.01% formic acid + 5 mM ammonium formate; gradient (min/%B) 0.1/1 3/39 14/99.9 16/99.9. Particulars: stereoisomer not certain.
`CN1CCCC1Cc1c[nH]c2ccc(CCS(=O)(=O)c3ccccc3)cc12` (centres undefined): the LC retention time came out at 5.51 min.
With `CCCCCn1cc(C(=O)c2ccc(OC)cc2)c2ccccc21` the figure was 11.8 min; with `C=CCC1(C(C)C#CCC)C(=O)NC(=O)N(C)C1=O` (centres undefined), 9.09 min.
In the case of `CCC(N)Cc1ccc2c(c1)OCO2` (centres undefined) it was 4.73 min; in that of `Cn1cc[nH]c1=S`, 2.61 min.
As for `CCNC(=O)c1ccc(OC)cc1`, the LC retention time is 5.59 min.
In the case of `CC1=C(C(=O)Nc2ccccc2)S(=O)(=O)CCO1` it was 5.59 min.
In the case of `O=c1cn[nH][nH]1` it was 5.99 min; in that of `CCOP(=S)(OCC)SCCS(=O)(=O)CC`, 8.02 min.
With `COc1nc(NC(C)C)nc(NC(C)C)n1` the figure was 8.86 min; with `CC(C)C1CCC(C(=O)NC(Cc2ccccc2)C(=O)O)CC1` (centres undefined), 10.4 min; with `N=C1NC(=O)C(c2ccccc2)O1` (centres undefined), 4.34 min.
On to `COc1ccc(OC)c(CC(C)N)c1` (centres undefined), for which the LC retention time is 4.78 min.
In the case of `Cc1c(C(C)C)c(=O)n(-c2ccccc2)n1C` it was 7.23 min; in that of `CCNC(C)Cc1ccccc1` (centres undefined), 4.4 min; in that of `CN1CCC(=C2c3ccccc3CC(=O)c3sccc32)CC1`, 5.54 min.
As to `Cc1cc(NS(=O)(=O)c2ccc(N)cc2)no1`, the LC retention time amounted to 4.6 min.
Consider `COCC(C)N(C(=O)CS(=O)(=O)O)c1c(C)csc1C` (centres undefined), for which the LC retention time worked out at 6.28 min.
In the case of `CN(C)CCCn1c2c(c3ccccc31)CCCCCC2` it was 9.26 min; in that of `CNCCN1C(=O)C(OC(C)=O)C(c2ccc(OC)cc2)Sc2ccccc21` (centres undefined), 7.21 min; in that of `Cn1c(=O)c2c(ncn2CCO)n(C)c1=O`, 4.09 min.
In the case of `CCCCCn1nc(C(=O)NC(C(N)=O)C(C)(C)C)c2ccccc21` (centres undefined) it was 11.2 min.
In the case of `CCCCCn1nc(C(=O)Oc2cccc3cccnc23)c2ccccc21` it was 11.4 min.
Turning to `CNCC(O)c1ccc(O)cc1` (centres undefined), the LC retention time is 1.6 min.
For `CN1CCCCC1CCN1c2ccccc2Sc2ccc(S(C)=O)cc21` (centres undefined), the LC retention time worked out at 6.74 min.
As for `CN1C2CCC1CC(OC(c1ccccc1)c1ccccc1)C2` (centres undefined), the LC retention time amounted to 7.97 min.
In the case of `CCNC(C)C(O)c1ccc(O)c(O)c1` (centres undefined) it was 1.99 min.
In the case of `CCCCN1CCCCC1C(=O)Nc1c(C)cccc1C` (centres undefined) it was 6.18 min; in that of `NNCCc1ccccc1`, 3.71 min; in that of `CC(CN1c2ccccc2Sc2ccc(S(=O)(=O)N(C)C)cc21)N(C)C` (centres undefined), 7.01 min.
With `Oc1ccc2ccccc2c1N=Nc1ccccc1` the figure was 13.6 min; with `CCOP(=S)(Oc1cnc(C(C)(C)C)nc1)OC(C)C` (centres undefined), 12.3 min; with `c1cc2c(cc1CN1CCNCC1)OCO2`, 4.22 min.
On to `CCC(C)C1OC2(CCC1C)CC1CC(CC=C(C)C(OC3CC(OC)C(OC4CC(OC)C(O)C(C)O4)C(C)O3)C(C)C=CC=C3COC4C(O)C(C)=CC(C(=O)O1)C34O)O2` (centres undefined), for which the LC retention time was 14.4 min.
With `CCCCCCC(C)(C)c1cc(O)c2c(c1)OC(C)(C)C1CC=C(CO)CC21` (centres undefined) the figure was 13.5 min; with `Cc1ccc2c(-c3ccccc3)nc(=O)n(C(C)C)c2c1`, 9.61 min.
With `COC(=O)C1=C(C)NC(C)=C(C(=O)OC(C)(C)CN(C)CCC(c2ccccc2)c2ccccc2)C1c1cccc([N+](=O)[O-])c1` (centres undefined), the LC retention time came out at 11.1 min.
`CCCN(CC)CC1COC2(CCC(C(C)(C)C)CC2)O1` (centres undefined): the LC retention time came out at 9.32 min.
With `CC(C)(C)NCC(O)COc1nsnc1N1CCOCC1` (centres undefined) the figure was 4.88 min.
In the case of `CN(C)S(=O)(=O)c1ccc2c(c1)N(CCCN1CCC(CCO)CC1)c1ccccc1S2` it was 7.39 min.
As to `CN(CCO)CC(O)Cn1cnc2c1c(=O)n(C)c(=O)n2C` (centres undefined), the LC retention time came to 2.99 min.
With `Nc1ccc2c(c1)C(c1ccccc1)=NCC(=O)N2` the figure was 4.78 min.
Consider `CNC(=O)Oc1cc(C)c(S(C)=O)c(C)c1` (centres undefined), for which the LC retention time is 4.86 min.
With `CCc1cccc(C)c1N(C(=O)CS(=O)(=O)O)C(C)COC` (centres undefined) the figure was 7.34 min.
In the case of `CC1CCCCC1NC(=O)Nc1ccccc1` (centres undefined), the LC retention time came out at 9.37 min.
With `CCCc1ccc(C(=O)c2cn(CCC)c3ccccc23)c2ccccc12` the figure was 12.7 min; with `CC(C)NCC(O)COc1ccc(CC(N)=O)cc1` (centres undefined), 3.09 min.
On to `COc1ccc(CC(C)N)cc1OC` (centres undefined), for which the LC retention time stood at 3.94 min.
Take `CCOc1nc2cccc(C(=O)O)c2n1Cc1ccc(-c2ccccc2-c2nn[nH]n2)cc1`: the LC retention time amounted to 7.93 min.
In the case of `CN(C)C(=S)SSC(=S)N(C)C` it was 6.8 min; in that of `CCCc1nn(C)c2c(=O)[nH]c(-c3cc(C(=O)N4CCN(CC)CC4)ccc3OCC)nc12`, 6.78 min; in that of `CC(=O)CC(c1ccccc1)c1c(O)c2ccccc2oc1=O` (centres undefined), 9.08 min.
In the case of `CCOP(=S)(OCC)Oc1ccc(S(C)(=O)=O)cc1`, the LC retention time came out at 8.48 min.
In the case of `CC(C)=CC1C(C(=O)OCN2C(=O)C3=C(CCCC3)C2=O)C1(C)C` (centres undefined) it was 12.2 min; in that of `CCCSc1ccc2nc(NC(=O)OC)[nH]c2c1`, 9.19 min.
With `CCCc1nn(C)c2c(=S)nc(-c3cc(C(=S)N4CCN(C)CC4)ccc3OCC)[nH]c12` the figure was 11.5 min.
With `CCCCCn1cc(C(=O)c2cccc3ccccc23)c2ccc(O)cc21` the figure was 11.2 min.
As for `CCOP(=S)(OCC)SCCSCC`, the LC retention time was found to be 11.5 min.
With `C1=Cc2ccccc2Nc2ccccc21` the figure was 10.1 min; with `CCOP(=S)(OCC)Oc1cc(-c2ccccc2)on1`, 11.3 min.
With `COc1nc(C)nc(N)n1` the figure was 3.71 min; with `CNCC12CCC(c3ccccc31)c1ccccc12`, 6.52 min.
With `CC(C)c1ccc(NC(N)=O)cc1` the figure was 7.76 min; with `CCCCN(CCCC)SN(C)C(=O)Oc1cccc2c1OC(C)(C)C2`, 13.8 min; with `CC(C)(C)NCC(O)c1ccc(O)c(NC(N)=O)c1` (centres undefined), 2.89 min.
In the case of `Cc1ccc(NC=O)c(C)c1`, the LC retention time was found to be 6.67 min.
With `CC(C)C(O)(C(=O)OCC1=CC[N+]2([O-])CCC(O)C12)C(C)O` (centres undefined) the figure was 3.94 min.
In the case of `CC1(c2ccc(Oc3ccccc3)cc2)OC(=O)N(Nc2ccccc2)C1=O` (centres undefined) it was 11 min.
With `C=CC1(C)CC(OC(=O)CSCCN(CC)CC)C2(C)C(C)CCC3(CCC(=O)C32)C(C)C1O` (centres undefined) the figure was 7.71 min; with `CCCc1nn(C)c2c(=O)[nH]c(-c3cc(C(C)=O)ccc3OCC)nc12`, 9.81 min; with `CCCc1nc2c(C)cc(-c3nc4ccccc4n3C)cc2n1Cc1ccc(-c2ccccc2C(=O)O)cc1`, 10.3 min.
As to `Cc1ccc(C(=O)c2cn(CCCCCO)c3ccccc23)c2ccccc12`, the LC retention time is 10.6 min.
With `COc1ccc(Oc2ccc(NC(=O)N(C)C)cc2)cc1` the figure was 8.43 min; with `OC(CCN1CCCC1)(c1ccccc1)C1CCCCC1` (centres undefined), 7.8 min.
With `c1ccc2c(c1)Cc1ccccc1N1CCNCC21` (centres undefined) the figure was 6.86 min.
In the case of `CCn1cc(C(=O)O)c(=O)c2cc3c(cc21)OCO3` it was 6.03 min; in that of `CCOP(=S)(Oc1ccc(C#N)cc1)c1ccccc1` (centres undefined), 10.9 min; in that of `COC(C)(C)CCCC(C)CC=CC(C)=CC(=O)OC(C)C` (centres undefined), 13.6 min.
In the case of `CC=CCC1=C(C)C(OC(=O)C2C(C=C(C)C(=O)OC)C2(C)C)CC1=O` (centres undefined), the LC retention time stood at 11.6 min.
With `Cc1cc(C)cc(C(=O)N(NC(=O)c2ccc3c(c2C)CCCO3)C(C)(C)C)c1`, the LC retention time was 9.93 min.
Turning to `CCNC(C)C(=O)c1ccc(C)cc1` (centres undefined), the LC retention time came out at 4.74 min.
With `CCCCOC(=O)c1ccccc1C(=O)OCCCC` the figure was 12 min; with `Nc1ccc(S(=O)(=O)Nc2cnc3ccccc3n2)cc1`, 5.81 min; with `CC1(C)OC2COC3(COS(N)(=O)=O)OC(C)(C)OC3C2O1` (centres undefined), 6.08 min.
In the case of `CCN(CC)CCNC(=O)c1ccc(N)cc1` it was 2.83 min.
Regarding `CCSC(=O)N(CC)C1CCCCC1`, the LC retention time came out at 11.7 min.
In the case of `O=c1[nH]cnc2[nH]ncc12` it was 2.19 min; in that of `O=P(Oc1ccccc1)(Oc1ccccc1)Oc1ccccc1`, 11 min; in that of `CCCn1c(C)c(C(=O)c2cccc3ccccc23)c2ccccc21`, 11.5 min.
With `O=[N+]([O-])c1cncn1CCN1CCOCC1` the figure was 4.09 min; with `CCCc1nn(C)c2c(=O)[nH]c(-c3cc(C(=O)CN4CCN(CC)C(=O)C4=O)ccc3OCC)nc12`, 8.18 min.
In the case of `CCOc1cc(NC(C)=O)ccc1C(=O)OC` it was 6.63 min; in that of `COC1(C)CC(c2ccccc2)c2c(c3ccccc3oc2=O)O1` (centres undefined), 11.1 min.
In the case of `CN(C(=O)COc1nc2ccccc2s1)c1ccccc1`, the LC retention time was 9.83 min.
In the case of `Cn1nc2ccccc2n1` it was 5.11 min; in that of `CC(=O)Oc1cccc2[nH]cc(CCN(C(C)C)C(C)C)c12`, 4.88 min; in that of `CNC(=C[N+](=O)[O-])NCCSCc1csc(CN(C)C)n1`, 2.96 min.
In the case of `CC(C)N1C(=O)N(c2ccccc2)CSC1=NC(C)(C)C` it was 12.2 min; in that of `CC(N)Cc1c[nH]c2ccccc12` (centres undefined), 4.44 min.

The values are drawn from the RepoRT retention time repository (doi:10.1016/j.jhazmat.2019.121712).
